Source: US10597388B2, “Pyridazinone herbicides” (FMC CORPORATION, priority 2014, dated 2020)

Columns and labels:
Assay in all cases: Test D controlled growth environment herbicide test, pre- and postemergence
Assay type in all cases: in vivo
[1] = test system: field poppy (Papaver rhoeas)
How it was run: (§1)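 Rating is visual, 0–100 scale (100 = complete control), made against untreated plants 14–21 d after treatment in controlled growth conditions. Postemergence sprays went onto 1- to 4-leaf plants in peat medium; preemergence sprays onto silt loam after sowing; formulation included a surfactant.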

[2] = test system: wheat, spring (spring wheat, Triticum aestivum)
How it was run: as §1

[3] = test system: barley, winter (winter barley, Hordeum vulgare)
How it was run: as §1

[4] = test system: lambsquarters (Chenopodium album)
How it was run: as §1

[5] = test system: radish, wild (wild radish, Raphanus raphanistrum)
How it was run: as §1

[6] = test system: field violet (Viola arvensis); details: Preemergence
How it was run: as §1

[7] = test system: chickweed (common chickweed, Stellaria media)
How it was run: as §1

[8] = test system: bluegrass (annual bluegrass, Poa annua)
How it was run: as §1

[9] = test system: barley, spring (spring barley, Hordeum vulgare)
How it was run: as §1

[10] = test system: canarygrass (Phalaris minor)
How it was run: as §1

[11] = test system: oat, wild (wild oat, Avena fatua)
How it was run: as §1

[12] = test system: wheat, winter (winter wheat, Triticum aestivum)
How it was run: as §1

[13] = Postemergence, 31 g ai/ha, scale 0 to 100 (0 no effect, 100 complete control)
[14] = Postemergence, 125 g ai/ha, visual rating on scale 0 (no effect) to 100 (complete control), 14 to 21 d
[15] = Postemergence, 250 g ai/ha, scale 0 to 100 (0 no effect, 100 complete control)
[16] = Preemergence, 62 g ai/ha, scale 0 to 100 (0 no effect, 100 complete control)
[17] = Preemergence, 125 g ai/ha, scale 0 to 100 (0 no effect, 100 complete control)
[18] = Preemergence, 250 g ai/ha, scale 0 to 100, 0 no effect, 100 complete control
[19] = postemergence, 62 g ai/ha, scale 0 to 100, 0 no effect, 100 complete control

Question: CCc1sc2ccc(C)cc2c1-c1c(O)c(C)nn(C)c1=O [Compound 47] was tested. Which “Field Poppy plant response rating” value [1, 13] did it give?
Answer: The value was 80.

Question: And the “Plant response rating, Field Poppy” value [1, 14]?
Answer: The value was 100.

Question: And the “Plant response rating, Field Poppy” value [1, 15]?
Answer: The value was 100.

Question: And the “Plant response rating (scale of 0 to 100), Field Poppy” value ([1]; Preemergence, 31 g ai/ha)?
Answer: Its value is 60.

Question: And the “Plant response rating, Field Poppy” value [1, 16]?
Answer: The value was 100.

Question: And the “Plant response rating, Field Poppy” value [1, 17]?
Answer: The value was 100.

Question: And the “Plant response rating, Field Poppy” value [1, 18]?
Answer: Its value is 100.

Question: And the “Plant response rating, Field Poppy” value [1, 19]?
Answer: The value was 100.

Question: What about the “Wheat, Spring plant response rating” value [2, 13] of the same compound?
Answer: Its value is 10.

Question: What about the “Plant response rating, Wheat, Spring” value [2, 14] of the same compound?
Answer: Its value is 15.

Question: And the “Plant response rating, Wheat, Spring” value [2, 15]?
Answer: The value was 15.

Question: And the “Plant response rating (scale of 0 to 100), Wheat, Spring” value ([2]; Preemergence, 31 g ai/ha)?
Answer: The value was 5.

Question: What about the “Plant response rating, Wheat, Spring” value [2, 16] of the same compound?
Answer: The value was 5.

Question: And the “Plant response rating, Wheat, Spring” value [2, 17]?
Answer: The value was 15.

Question: And the “Plant response rating, Wheat, Spring” value [2, 18]?
Answer: The value was 15.

Question: What about the “Plant response rating, Wheat, Spring” value [2, 19] of the same compound?
Answer: The value was 10.

Question: And the “Barley, Winter plant response rating” value [3, 13]?
Answer: Its value is 10.

Question: And the “Plant response rating, Barley, Winter” value [3, 14]?
Answer: Its value is 15.

Question: And the “Plant response rating, Barley, Winter” value [3, 15]?
Answer: The value was 15.

Question: And the “Plant response rating (scale of 0 to 100), Barley, Winter” value ([3]; Preemergence, 31 g ai/ha)?
Answer: The value was 0.

Question: What about the “Plant response rating, Barley, Winter” value [3, 16] of the same compound?
Answer: Its value is 0.

Question: What about the “Plant response rating, Barley, Winter” value [3, 17] of the same compound?
Answer: The value was 5.

Question: And the “Barley, Winter plant response rating” value [3, 18]?
Answer: The value was 10.

Question: What about the “Plant response rating, Barley, Winter” value [3, 19] of the same compound?
Answer: The value was 10.

Question: What about the “Lambsquarters plant response rating” value [4, 13] of the same compound?
Answer: Its value is 45.

Question: What about the “Plant response rating, Lambsquarters” value [4, 14] of the same compound?
Answer: Its value is 70.

Question: And the “Plant response rating, Lambsquarters” value [4, 15]?
Answer: Its value is 70.

Question: What about the “Plant response rating (scale of 0 to 100), Lambsquarters” value ([4]; Preemergence, 31 g ai/ha) of the same compound?
Answer: Its value is 100.

Question: And the “Plant response rating, Lambsquarters” value [4, 16]?
Answer: The value was 100.

Question: And the “Plant response rating, Lambsquarters” value [4, 17]?
Answer: Its value is 100.

Question: And the “Plant response rating, Lambsquarters” value [4, 18]?
Answer: The value was 100.

Question: And the “Plant response rating, Lambsquarters” value [4, 19]?
Answer: Its value is 50.

Question: And the “Radish, Wild plant response rating” value [5, 13]?
Answer: Its value is 5.

Question: And the “Plant response rating, Radish, Wild” value [5, 14]?
Answer: The value was 5.

Question: And the “Plant response rating, Radish, Wild” value [5, 15]?
Answer: The value was 20.

Question: And the “Plant response rating (scale of 0 to 100), Radish, Wild” value ([5]; Preemergence, 31 g ai/ha)?
Answer: Its value is 20.

Question: And the “Plant response rating, Radish, Wild” value [5, 16]?
Answer: Its value is 25.

Question: What about the “Plant response rating, Radish, Wild” value [5, 17] of the same compound?
Answer: Its value is 100.

Question: What about the “Plant response rating, Radish, Wild” value [5, 18] of the same compound?
Answer: Its value is 85.

Question: And the “Plant response rating, Radish, Wild” value [5, 19]?
Answer: Its value is 10.

Question: What about the “Plant response rating (scale of 0 to 100), Field Violet” value ([6]; 31 g ai/ha) of the same compound?
Answer: Its value is 95.

Question: And the “Plant response rating, Field Violet” value ([6]; 62 g ai/ha, scale 0 to 100 (0 no effect, 100 complete control))?
Answer: The value was 100.

Question: What about the “Plant response rating, Field Violet” value ([6]; 125 g ai/ha, scale 0 to 100 (0 no effect, 100 complete control)) of the same compound?
Answer: The value was 100.

Question: What about the “Plant response rating, Field Violet” value ([6]; 250 g ai/ha, scale 0 to 100, 0 no effect, 100 complete control) of the same compound?
Answer: The value was 100.

Question: What about the “Chickweed plant response rating” value [7, 13] of the same compound?
Answer: Its value is 90.

Question: What about the “Plant response rating, Chickweed” value [7, 14] of the same compound?
Answer: Its value is 95.

Question: What about the “Plant response rating, Chickweed” value [7, 15] of the same compound?
Answer: Its value is 100.

Question: What about the “Plant response rating (scale of 0 to 100), Chickweed” value ([7]; Preemergence, 31 g ai/ha) of the same compound?
Answer: Its value is 90.

Question: What about the “Plant response rating, Chickweed” value [7, 16] of the same compound?
Answer: Its value is 95.

Question: And the “Plant response rating, Chickweed” value [7, 17]?
Answer: The value was 100.

Question: And the “Plant response rating, Chickweed” value [7, 18]?
Answer: Its value is 90.

Question: And the “Plant response rating, Chickweed” value [7, 19]?
Answer: The value was 95.

Question: What about the “Bluegrass plant response rating” value [8, 13] of the same compound?
Answer: Its value is 5.

Question: And the “Plant response rating, Bluegrass” value [8, 14]?
Answer: The value was 10.

Question: What about the “Plant response rating, Bluegrass” value [8, 15] of the same compound?
Answer: The value was 15.

Question: And the “Plant response rating (scale of 0 to 100), Bluegrass” value ([8]; Preemergence, 31 g ai/ha)?
Answer: The value was 0.

Question: And the “Plant response rating, Bluegrass” value [8, 16]?
Answer: Its value is 20.

Question: What about the “Plant response rating, Bluegrass” value [8, 17] of the same compound?
Answer: The value was 20.

Question: What about the “Bluegrass plant response rating” value [8, 18] of the same compound?
Answer: Its value is 20.

Question: What about the “Plant response rating, Bluegrass” value [8, 19] of the same compound?
Answer: Its value is 10.

Question: And the “Barley, Spring plant response rating” value [9, 13]?
Answer: Its value is 0.

Question: What about the “Plant response rating, Barley, Spring” value [9, 14] of the same compound?
Answer: Its value is 0.

Question: And the “Plant response rating, Barley, Spring” value [9, 15]?
Answer: The value was 0.

Question: What about the “Plant response rating (scale of 0 to 100), Barley, Spring” value ([9]; Preemergence, 31 g ai/ha) of the same compound?
Answer: Its value is 0.

Question: And the “Plant response rating, Barley, Spring” value [9, 16]?
Answer: The value was 5.

Question: What about the “Plant response rating, Barley, Spring” value [9, 17] of the same compound?
Answer: Its value is 15.

Question: What about the “Barley, Spring plant response rating” value [9, 18] of the same compound?
Answer: The value was 15.

Question: What about the “Plant response rating, Barley, Spring” value [9, 19] of the same compound?
Answer: The value was 0.

Question: And the “Canarygrass plant response rating” value [10, 13]?
Answer: Its value is 0.

Question: What about the “Plant response rating, Canarygrass” value [10, 14] of the same compound?
Answer: The value was 0.

Question: And the “Plant response rating, Canarygrass” value [10, 15]?
Answer: The value was 0.

Question: What about the “Plant response rating (scale of 0 to 100), Canarygrass” value ([10]; Preemergence, 31 g ai/ha) of the same compound?
Answer: Its value is 0.

Question: And the “Plant response rating, Canarygrass” value [10, 16]?
Answer: Its value is 0.

Question: And the “Plant response rating, Canarygrass” value [10, 17]?
Answer: Its value is 0.

Question: What about the “Plant response rating, Canarygrass” value [10, 18] of the same compound?
Answer: Its value is 5.

Question: And the “Plant response rating, Canarygrass” value [10, 19]?
Answer: Its value is 0.

Question: And the “Oat, Wild plant response rating” value [11, 13]?
Answer: The value was 10.

Question: What about the “Plant response rating, Oat, Wild” value [11, 14] of the same compound?
Answer: The value was 20.

Question: And the “Plant response rating, Oat, Wild” value [11, 15]?
Answer: The value was 40.

Question: And the “Plant response rating (scale of 0 to 100), Oat, Wild” value ([11]; Preemergence, 31 g ai/ha)?
Answer: The value was 10.

Question: What about the “Plant response rating, Oat, Wild” value [11, 16] of the same compound?
Answer: Its value is 20.

Question: What about the “Plant response rating, Oat, Wild” value [11, 17] of the same compound?
Answer: The value was 35.

Question: What about the “Plant response rating, Oat, Wild” value [11, 18] of the same compound?
Answer: Its value is 40.

Question: And the “Plant response rating, Oat, Wild” value [11, 19]?
Answer: The value was 15.

Question: And the “Wheat, Winter plant response rating” value [12, 13]?
Answer: Its value is 5.

Question: What about the “Plant response rating, Wheat, Winter” value [12, 14] of the same compound?
Answer: The value was 10.

Question: What about the “Plant response rating, Wheat, Winter” value [12, 15] of the same compound?
Answer: The value was 5.

Question: What about the “Plant response rating (scale of 0 to 100), Wheat, Winter” value ([12]; Preemergence, 31 g ai/ha) of the same compound?
Answer: Its value is 5.

Question: And the “Plant response rating, Wheat, Winter” value [12, 16]?
Answer: The value was 5.

Question: What about the “Plant response rating, Wheat, Winter” value [12, 17] of the same compound?
Answer: Its value is 10.

Question: What about the “Plant response rating, Wheat, Winter” value [12, 18] of the same compound?
Answer: Its value is 10.

Question: And the “Plant response rating, Wheat, Winter” value [12, 19]?
Answer: Its value is 5.
